Test [1] has as its target T1, AaenPBP1 (Agriphila aeneociliella, UniProt Z9SOT8HEE8).
T1 construct: mature protein without signal peptide (1-23 of 166 aa ORF); pET-15b with SUMO tag, His-tag Ni-NTA purification, E. coli BL21(DE3)
T1 sequence (Z9SOT8HEE8 24-166): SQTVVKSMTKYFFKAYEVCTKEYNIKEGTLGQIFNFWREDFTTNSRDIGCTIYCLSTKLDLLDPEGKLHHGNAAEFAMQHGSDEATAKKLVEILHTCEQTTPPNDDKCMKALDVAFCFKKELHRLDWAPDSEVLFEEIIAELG
Description: competitive fluorescence binding (1-NPN displacement).

For test [2], the target named is T1, AaenPBP1. Description: fluorescence titration, Scatchard analysis. The format is binding.

The values that follow come from article PMC11642448, “Pheromone-Binding Protein 1 Performs a Dual Function for Intra- and Intersexual Signaling in a Moth” (International Journal of Molecular Sciences, 2024).

As for `CCCCCCCCC=O` [1-Nonanal], affinity in test [1] was put at a Ki of 7.04 µM.
For `c1ccc(Nc2cccc3ccccc23)cc1` [1-NPN], the Kd (commonly a measure of binding affinity in units of concentration) in test [2] is 4.6 µM.
On to `CCCCCC/C=C\CCCCCCCCOC(C)=O` [(Z)-9-Hexadecenyl acetate], for which, in test [1], the affinity corresponds to a Ki of 1.72 µM.
